We go through ten compounds from patent US4297346A, “Pseudopeptides used as medicaments” (priority 1976, dated 1981).

Usually mortality stands for the percentage killed.

For one data set, the system named is tryptophane hydroxylase. To be noted: 4-nitro-amphetamine: in 4 hours, still perceptive two weeks later; cited from earlier work.
A further data set has as its system serotonin. To be noted: 4-nitro-amphetamine: in 4 hours, still perceptive two weeks later; cited from earlier work.
The subject of data set [1] is mouse. Nature of the data set: Jumping effects with L-DOPA in mice which have received d-amphetamine. The class given is in vivo. Conditions: for jumping effects (in words): counted for 90 minutes, L-DOPA 100 mg/kg intraperitoneally. How it is done:
(§1) The different tests which are carried out on mice by the known techniques comprise:
the jerking movements with L-DOPA.
(4) Jumping effects with L-DOPA

Data set [2] has as its system mouse. Nature of the data set: Potentialisation of the group toxicity to amphetamine. It counts as in vivo. How it is done:
as §1
the potentialisation of the group toxicity to amphetamine,
(3) Group toxicity in respect of amphetamine

Data set [3] deals with mouse. Nature of the data set: Anti-reserpine action (interaction with reserpine). It counts as in vivo. How it is done: as §1
the anti-reserpine action,
(2) Interaction with reserpine

Data set [4] deals with mouse. The experiment in a line: Action on the rectal temperature of the mouse (pGlu-His-dopamine). The class given is in vivo. How it is done:
as §1
the action on the rectal temperature of the mouse,
(1) Action on the rectal temperature

Data set [5] is described as follows: Potentialisation of the toxicity of amphetamine by TRH. The class given is in vivo.
Data set [6] concerns mouse. The experiment in a line: Action on the rectal temperature in the mouse (amphetamic pseudopeptides). It counts as in vivo. To be noted: for dose causing a hypothermia 30 minutes after injection: small doses. As for the experimental part: action on the rectal temperature in the mouse.
(§2) A comparison of these three substances, pGlu-Amph, pGlu-His-Amph and pGlu-His-Pro-Amph, with amphetamine, has been able to be carried out as follows; for this purpose, the products were administered systematically by intraperitoneal route and by oral route, it being possible for this latter procedure to verify the generally admitted assertion of a gastric hydrolysis of peptides; in this case, the action of the amphetamine should be integrally re-established.
A--Action on the rectal temperature in respect of the mouse

A further data set has as its system rat. Nature of the data set: Induction of stereotype movements in the rat. It counts as in vivo. How it is done: induction of stereotypes in the rat,
as §2
B--Induction of stereotype movements

In data set [7] the test system is mouse. Nature of the data set: Study of the toxicity in the mouse. It counts as in vivo. How it is done:
study of the toxicity in the mouse.
as §2

For data set [8] the following is noted: in vivo.
Where [9] appears, read: intraperitoneal route, 400 mg/kg.
Setting [10] is: intraperitoneal route, 600 mg/kg.

In the case of `CC(N)Cc1ccc(N)cc1` (centres unmarked) [4-amino-amphetamine, p-amino-amphetamine], in the data set on tryptophane hydroxylase, the “effect on the activity of the tryptophane hydroxylase” value is on record as “not modified to any appreciable degree”. The “effect on the amount of serotonin” value with serotonin is “increase in the amount of serotonin”.
As to `CC(N)Cc1ccc([N+](=O)[O-])cc1` (centres unmarked) [4-nitro-amphetamine, p-nitro-amphetamine], the “effect on the activity of the tryptophane hydroxylase” value in the data set with tryptophane hydroxylase was “decrease in the activity of the tryptophane hydroxylase”. The “effect on the amount of serotonin” value in the data set on serotonin was “depletion of serotonin”.
As for `NCCc1ccc(O)c(O)c1` [Dopamine, dopamine], in the data set on mouse [1], the “jumping effects (in words)” value is recorded as “no jumping effects are produced”. Besides, in the data set with mouse [2], the “time after the injection of amphetamine at which the effect is developed” value is “about 20 minutes”. The “effect on the reserpine fall in temperature” value in the data set with mouse [3] is on record as “small effect”. Besides, the “effect on reserpine ptosis” value with mouse [3] (effect not lasting) is recorded as “completely counteracts ptosis”. Further, the “action on the rectal temperature (in words)” value (“action … (in words)” for short) in the data set with mouse [4] was “hypothermal action, but the amplitude thereof is much smaller”.
Regarding `N[C@@H](Cc1ccc(O)c(O)c1)C(=O)O` [L-DOPA], the “jumping effects (in words)” value with mouse [1] was “numerous jumping actions”. In addition, in the data set on mouse [2], the “behavioural effect in amphetamine group toxicity test (in words)” value was “extreme agitation”. Further, in the data set with mouse [3] (400 mg/kg intraperitoneally), the “action on the effects of reserpine (temperature, ptosis)” value is “antagonises the effects of the reserpine on the temperature and the dropping of the eyelids”. Moreover, the “action on the effects of reserpine” value with mouse [3] (oral administration, same dosage (400 mg/kg)) was “not found”. Also, in the data set on mouse [4], the “action … (in words)” value is reported as “hypothermia”.
Turning to `NC(=O)[C@@H]1CCCN1C(=O)[C@H](Cc1cnc[nH]1)NC(=O)[C@@H]1CCC(=O)N1` [TRH, pGlu-His-Pro-NH2], the “effect on the toxicity of amphetamine” value in data set [5] (25 mg/kg, subcutaneous application) is “potentialises the toxicity of the amphetamine”.
For `CC(N)Cc1ccccc1` (centres unmarked) [amphetamine, reference compound], in the data set with mouse [6] (intraperitoneal route), the “dose from which a hyperthermia appears” value is given as at least 4 mg/kg, the “time after which the temperature of the treated animals is again that of the controls” value was found to be 2 h, the “time of the maximum of the hyperthermia” value turned out to be 30 min and the “dose causing a hypothermia 30 minutes after injection” value stood at 1 mg/kg. Further, in the data set on mouse [6] (oral route), the “action … (in words)” value is on record as “substantially the same as when applied intraperitoneally” and the “dose still causing a hypothermia” value amounted to 4 mg/kg. Moreover, in the data set with rat (intraperitoneal route), the “dosage at which the maximum amplitude of stereotype movements is achieved” value was determined as 10 mg/kg and the “induction of stereotype movements (in words)” value (shortened to “induction”) is “causes stereotype movements”. For the same compound, the “duration of the stereotype movements” value with rat (intraperitoneal route, 10 mg/kg) was at most 5 h. The “induction” value in the data set on rat (oral route) is “less significant intensity and of slightly longer duration than by the intraperitoneal route”. The compound further came in with an LD50 of amphetamine in data set [5] (amphetamine alone) of 17.8 mg/kg. This compound also had an LD50 of amphetamine in [5] (with TRH at 25 mg/kg by subcutaneous application) of 5.7 mg/kg. The “signs observed with toxic dosages” value in the data set with mouse [7] (intraperitoneal route) is listed as “general syndrome of excitation”.
`CC(Cc1ccccc1)NC(=O)C1CCC(=O)N1` (centres unmarked) [pGlu-Amph, pGlu--Amph]: in the data set on mouse [6] (intraperitoneal route), the “action … (in words)” value is on record as “very close to that of amphetamine”, the “dose from which a hyperthermia appears” value was at least 10 mg/kg, the “period of the action compared with amphetamine” value was “the same” and the “time of the maximum of the hyperthermia” value worked out at 60 min. Also, the “dose causing a hypothermia 30 minutes after injection” value in the data set with mouse [6] (intraperitoneal route) is listed as 5 mg/kg. Besides, in the data set on mouse [6] (oral route), the “action … (in words)” value was “modelled on that of the amphetamine”. In the data set on rat (intraperitoneal route), the “induction” value was “completely identical with that of amphetamine”. For the same compound, the “effect versus that produced by the equivalent amphetamine dose” value in the data set with rat (intraperitoneal route, dose transformed into contained amphetamine) is “almost identical or is slightly smaller”. Also, the “doses versus doses of amphetamine producing a similar/equivalent effect” value in the data set on rat (oral route) was “practically equivalent”. In the data set with mouse [7] (intraperitoneal route), the “dosage causing mortality of 50% (LD50)” value was “about 40 mg/kg” and the “signs observed with toxic dosages” value is recorded as “general syndrome of excitation”. Moreover, the “mortality (in words)” value in the data set with mouse [7] (oral route, 30 mg/kg) is on record as “does not cause any death”. For the same compound, the mortality with mouse [7] (oral route, 100 mg/kg) is reported as 100%.
In the data set on mouse [7] (oral route, 1000 mg/kg), `CC(Cc1ccccc1)NC(=O)[C@@H]1CCCN1C(=O)[C@H](Cc1c[nH]cn1)NC(=O)[C@@H]1CCC(=O)N1` (stereo partly drawn) [pGlu-His-Pro-Amph, pGlu--His--Pro--Amph] displayed a mortality of 25% and a time to death of 48 h.
Regarding pGlu--His--Amph [pGlu-His-Amph], the “time of the maximum of the hypothermia” value in the data set on mouse [6] (intraperitoneal administration) was 1 h. In the data set on mouse [6] (intraperitoneal route), the “action … (in words)” value is “always produces a hypothermia”, the “dose from which a hyperthermia appears” value is “above 50 mg/kg” and the “time of the maximum of the hyperthermia” value was “approximately 3 hours”. Also, in the data set on mouse [6] (oral route), the “action … (in words)” value is reported as “always causes a hypothermia followed by a hyperthermia proportional to the administered dose” and the “time of the maximum of the hypothermia” value was found to be 2 h. Besides, the “duration of action in the stereotyped movements test versus amphetamine (summary)” value with rat (in vivo) is “much longer lasting action”. Further, in the data set with rat (intraperitoneal route), the “dosage of contained amphetamine versus dosage of amphetamine causing an equal intensity of stereotypes” value is “three times greater” and the “induction” value is “also causes stereotypes”. Also, the “duration of the stereotype movements” value in the data set on rat (intraperitoneal route, strongest dosage) is on record as “exceeds 7 hours”. In addition, in the data set on rat (oral route), the “duration of the stereotyped movements” value is recorded as 271/2; the “induction” value was “much greater effect as regards intensity and duration than when applied intraperitoneally”; the “time the action takes to appear” value is recorded as “about 3 hours”. In addition, the “toxicity versus amphetamine (summary)” value with mouse [7] (in vivo) is recorded as “less than that of amphetamine”. Besides, in the data set with mouse [7] (setting [9]), the mortality stood at 10% and the “time after which agitation is established” value is 30 min. For the same compound, in the data set with mouse [7] (setting [10]), the dead mice is reported as 6 mice out of 10 and the time to death result is recorded as “less than 30 minutes”. In addition, in the data set with mouse [7] (intraperitoneal route, 800 mg/kg), the time to death result was “less than 3 min”. Besides, the “duration of stereotypic movements observed in the toxicity study” value with mouse [7] (oral route) was “more than 24 hours”. The same compound displayed a mice dead with mouse [7] (oral route, 2400 mg/kg) of 50%. For the same compound, the immediate death entry in the data set with mouse [7] (oral route, even with 2400 mg/kg) was “no longer observed”.
With pGlu--His--DA [pGlu-His-dopamine], in the data set with mouse [1], the “delay in the occurrence of the jumping effects versus L-DOPA” value is listed as “greater”, the “total number of jumps recorded versus L-DOPA” value is recorded as “smaller than that with L-DOPA” and the “jumping effects (in words)” value is recorded as “the same as with L-DOPA”. In the data set on mouse [2], the “behavioural effect in amphetamine group toxicity test (in words)” value is recorded as “identical with those of dopamine”. For the same compound, the “time of onset of the antioxotremorine action” value in data set [8] came to 15 min. For the same compound, in the data set on mouse [3] (400 mg/kg intraperitoneally), the “action on the effects of reserpine (temperature, ptosis)” value was “slightly counteracts simultaneously the ptosis and the fall in temperature”; the “duration of the anti-reserpine action” value was “less than 11/2”. For the same compound, in the data set with mouse [4], the “action … (in words)” value is given as “highly significant hypothermia”. In the data set with mouse [4] (relatively high dosage), the “time of occurrence of the hypothermia” value was 15 min.
